Structures can show the parent of a compound that is named as a salt.
Legend:
[1] = Test for oral administration (plasma concentration); format: in vivo; conditions: 1 mg/kg, monkey, fasted, 1 mg/2 mL/kg as free form in 0.5% methyl cellulose, plasma 0.5-24 h, HPLC/MS/MS
Method: Test for Oral Administration
To a monkey which had been fasted for over 15 hours, each test compound was orally administered in a free form at a dose of 1 mg/2 mL/kg. The test compound was dissolved or suspended in a 0.5% methyl cellulose solution. Before and 0.5, 1, 2, 4, 8 and 24 hours after the administration, the blood was collected at a ratio of 9 volumes to 1 volume of […] (total 1 ml). The blood was centrifuged (3000 rpm, 10 minutes, 4° C.), and the plasma was collected by separation. The separated plasma was pre-treated, and was subjected to measurement with HPLC/MS/MS, to calculate the plasma concentration from the areas under peak of the internal standard material and the test compound given by SRM chromatography using a calibration curve.

[2] = system: Human blood plasma; test: Determination of prothrombin time (PT); format: biochemical; conditions: concentration at which PT is doubled, Thromboplastin C Plus, linear regression
Method: Determination of Prothrombin Time (PT)
Human blood plasma (50 μl) was added to 50 μl of each test compound dissolved in 4% DMSO/physiological saline, and the mixture was pre-incubated at 37° C. for 1 minute. Subsequently, 100 μl of 0.5 U/ml Thromboplastin C Plus (Dade Behring) was added to initiate the reaction. The coagulation time was measured using Amelung KC-10A micro coagulometer (MC Medical). As a control, 4% DMSO/physiological saline was used in place of the test compound. The concentration at which PT is doubled (PTCT2) was calculated by linear regression.

[3] = molecular target: T1, human FXa (Homo sapiens, UniProt P00742); test: Determination of human FXa inhibitory effect (IC50 value); format: biochemical; conditions: substrate S-2222, absorbance at 405 nm, room temperature, read-out: FXaIC50
T1 construct: purchased Enzyme Research Laboratories, Inc
T1 sequence (P00742 235-488 limits assumed): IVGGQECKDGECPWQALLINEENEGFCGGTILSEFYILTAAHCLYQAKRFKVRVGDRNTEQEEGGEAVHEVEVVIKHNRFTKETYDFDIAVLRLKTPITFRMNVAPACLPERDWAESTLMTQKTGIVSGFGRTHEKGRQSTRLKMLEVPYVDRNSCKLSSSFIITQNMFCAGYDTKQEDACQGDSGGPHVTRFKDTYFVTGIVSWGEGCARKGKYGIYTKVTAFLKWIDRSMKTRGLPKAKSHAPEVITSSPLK
T1 sequence (P00742 41-179 partner limits assumed): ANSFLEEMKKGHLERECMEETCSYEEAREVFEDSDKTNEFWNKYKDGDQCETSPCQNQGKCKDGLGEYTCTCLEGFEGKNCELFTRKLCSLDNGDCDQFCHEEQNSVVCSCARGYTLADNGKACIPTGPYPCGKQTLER
Method: Determination of Human FXa Inhibitory Effect (IC50 Value)
To each well of a 96-well microplate, 10 μl of 5% DMSO solutions of each test compound, the concentrations of which were appropriately prepared stepwise, 40 μl of Tris buffer (100 mM Tris, 200 mM potassium chloride, 0.2% BSA, pH 7.4) and 10 μl of 0.0625 U/ml human FXa (Enzyme Research Laboratories, Inc. dissolved and diluted with Tris buffer) were added, and 40 μl of a 750 μM aqueous solution of S-2222 (Chromogenix Co.) was added. Absorbance at 405 nm was measured for 10 minutes at room temperature to determine an increase in absorbance (ΔOD/min). As a control, Tris buffer was used in place of the test compound.
The rate of inhibition (%) at the final concentration of the test compound calculated using the following equation and the final concentration of the test compound were plotted as ordinate and as abscissa, respectively on a logarithmic normal probability paper, to determine the 50% inhibition dose (IC^50 value). Rate of inhibition (%)=(1−(ΔOD/min) of test compound[…](ΔOD/min) of control)×100

SMILES	AUC [1] [ng·h/mL]	PTCT2 [2] [µM]	IC50 [3] [nM]
CN1CCc2nc(C(=O)N[C@@H]3CN(C=O)CC[C@@H]3NC(=O)C(=O)Nc3ccc(Cl)s3)sc2C1 [Example 23, N^1-(5-chlorothiophen-2-yl)-N^2-((3R,4S)-1-formyl-3-{[(5-methyl-4,5,6,7-tetrahydrothiazolo[5,4-c]pyridin-2-yl)carbonyl]amino}piperidin-4-yl)ethanediamide hydrochloride]	899	0.14	0.9
CN1CCc2nc(C(=O)N[C@@H]3CN(C=O)CC[C@@H]3NC(=O)C(=O)Nc3ccc(Cl)cn3)sc2C1 [Example 8, N^1-(5-chloropyridin-2-yl)-N^2-((3R,4S)-1-formyl-3-{[(5-methyl-4,5,6,7-tetrahydrothiazolo[5,4-c]pyridin-2-yl)carbonyl]amino}piperidin-4-yl)ethanediamide hydrochloride]	826	0.26	2.2
CC(=O)N1CC[C@H](NC(=O)C(=O)Nc2ccc(Cl)cn2)[C@H](NC(=O)c2nc3c(s2)CN(C)CC3)C1 [Example 9, N^1-((3R,4S)-1-acetyl-3-{[(5-methyl-4,5,6,7-tetrahydrothiazolo[5,4-c]pyridin-2-yl)carbonyl]amino}piperidin-4-yl)-N^2-(5-chloropyridin-2-yl)ethanediamide hydrochloride]	482	0.25	1.6
O=CN1CC[C@H](NC(=O)C(=O)Nc2ccc(Cl)cn2)[C@H](NC(=O)c2nc3c(s2)COCC3)C1 [Example 38, N^1-(5-chloropyridin-2-yl)-N^2-((3R,4S)-3-{[(6,7-dihydro-4H-pyrano[4,3-d]thiazol-2-yl)carbonyl]amino}-1-formylpiperidin-4-yl)ethanediamide]	880	0.50	3
COCC(=O)N1CC[C@H](NC(=O)C(=O)Nc2ccc(Cl)cn2)[C@H](NC(=O)c2nc3c(s2)CN(C)CC3)C1.Cl [Compound A, N^1-(5-chloropyridin-2-yl)-N^2-((3R,4S)-1-(2-methoxyacetyl)-3-{[(5-methyl-4,5,6,7-tetrahydrothiazolo[5,4-c]pyridin-2-yl)carbonyl]amino}piperidin-4-yl)ethanediamide hydrochloride, reference compound]	157	0.37	2.3

Source: patent US8088796B2, “Triamine derivative” (Daiichi Sankyo Company, Limited, priority 2005, dated 2012)
